System: 556581-035-R-J1-PDC complex spheroid growth
Assay: Anticancer human tumor 556581-035-R-J1-PDC patient-derived ovarian carcinoma cell line growth inhibition [AhR]
Conditions: for IC50: curve of first compound; for viability, T/C: stronger effect = lower value
How it was run: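 Agents were dosed in half-log steps down from roughly clinical Cmax, or from 10 microM where Cmax was unknown, alone and with AhR antagonists. Read-out: percent test/control growth of tumor spheroids containing HUVEC and MSC stromal cells.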
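Wherever viability, T/C is given: compound exposure lasted 7 days; 100% = DMSO vehicle control growth.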

Which IC50 (second compound 0.1 µM) does the source give for `CCc1c2c(nc3ccc(O)cc13)-c1cc3c(c(=O)n1C2)COC(=O)[C@]3(O)CC` + Cc1ccccc1N=Nc1ccc(NC(=O)c2ccnn2C)c(C)c1 here?
The IC50 was 21.2 nM.

And the IC50 (second compound 0.316 µM)?
Its IC50 is 17 nM.

And the IC50 (second compound 1 µM)?
The IC50 was 18.8 nM.

And the IC50 (second compound 3.16 µM)?
The IC50 was 20.5 nM.

What about the IC50 (second compound 10 µM) of the same molecule?
The IC50 was 22.1 nM.

And the viability, T/C (second compound 0.1 µM, first compound 0.000949 µM)?
Its viability, T/C is 97.1%.

And the viability, T/C (second compound 0.1 µM, first compound 0.003 µM)?
The viability, T/C was 87.2%.

And the viability, T/C (second compound 0.1 µM, first compound 0.00949 µM)?
Its viability, T/C is 64.8%.

What about the viability, T/C (second compound 0.1 µM, first compound 0.03 µM) of the same molecule?
Its viability, T/C is 42%.

And the viability, T/C (second compound 0.1 µM, first compound 0.0949 µM)?
The viability, T/C was 27.1%.

What about the viability, T/C (second compound 0.1 µM, first compound 0.3 µM) of the same molecule?
Its viability, T/C is 12.8%.

What about the viability, T/C (second compound 0.316 µM, first compound 0.000949 µM) of the same molecule?
The viability, T/C was 98.1%.

And the viability, T/C (second compound 0.316 µM, first compound 0.003 µM)?
The viability, T/C was 86.4%.

What about the viability, T/C (second compound 0.316 µM, first compound 0.00949 µM) of the same molecule?
Its viability, T/C is 64.3%.

And the viability, T/C (second compound 0.316 µM, first compound 0.03 µM)?
The viability, T/C was 36.5%.

What about the viability, T/C (second compound 0.316 µM, first compound 0.0949 µM) of the same molecule?
The viability, T/C was 18.3%.

What about the viability, T/C (second compound 0.316 µM, first compound 0.3 µM) of the same molecule?
Its viability, T/C is 12.7%.

And the viability, T/C (second compound 1 µM, first compound 0.000949 µM)?
The viability, T/C was 98.8%.

And the viability, T/C (second compound 1 µM, first compound 0.003 µM)?
The viability, T/C was 82.5%.

What about the viability, T/C (second compound 1 µM, first compound 0.00949 µM) of the same molecule?
The viability, T/C was 64.1%.

What about the viability, T/C (second compound 1 µM, first compound 0.03 µM) of the same molecule?
Its viability, T/C is 41.5%.

What about the viability, T/C (second compound 1 µM, first compound 0.0949 µM) of the same molecule?
Its viability, T/C is 23.7%.

And the viability, T/C (second compound 1 µM, first compound 0.3 µM)?
Its viability, T/C is 16.7%.

What about the viability, T/C (second compound 3.16 µM, first compound 0.000949 µM) of the same molecule?
The viability, T/C was 84%.

What about the viability, T/C (second compound 3.16 µM, first compound 0.003 µM) of the same molecule?
The viability, T/C was 86.5%.

What about the viability, T/C (second compound 3.16 µM, first compound 0.00949 µM) of the same molecule?
The viability, T/C was 74.6%.

What about the viability, T/C (second compound 3.16 µM, first compound 0.03 µM) of the same molecule?
The viability, T/C was 37.2%.

What about the viability, T/C (second compound 3.16 µM, first compound 0.0949 µM) of the same molecule?
Its viability, T/C is 20.7%.

And the viability, T/C (second compound 3.16 µM, first compound 0.3 µM)?
The viability, T/C was 14.1%.

And the viability, T/C (second compound 10 µM, first compound 0.000949 µM)?
The viability, T/C was 94.5%.

And the viability, T/C (second compound 10 µM, first compound 0.003 µM)?
The viability, T/C was 88.3%.

What about the viability, T/C (second compound 10 µM, first compound 0.00949 µM) of the same molecule?
Its viability, T/C is 72.9%.

What about the viability, T/C (second compound 10 µM, first compound 0.03 µM) of the same molecule?
Its viability, T/C is 40.8%.

And the viability, T/C (second compound 10 µM, first compound 0.0949 µM)?
Its viability, T/C is 23.2%.

What about the viability, T/C (second compound 10 µM, first compound 0.3 µM) of the same molecule?
The viability, T/C was 14.2%.

Reference: PubChem BioAssay AID1918999 (Molecular Pharmacology Branch, DTP, NCI, 2023)
